According to ChEMBL document CHEMBL1201862, “PubChem BioAssay data set” (2004):
Structures can show the parent of a compound that is named as a salt. Active and inactive are the calls of the source.

Tests used:
[1] = target: Beta-galactosidase (Escherichia coli, UniProt Q8VNN2); assay type: functional
[2] = tested on: Streptococcus; test: Luminescence Microorganism-Based Dose Response Follow up to Identify Compounds Cytotoxic to Streptococcus. [Related pubchem assays: 1677 (Project Summary), 1915, 1914, 1902 (Retest at Dose), 1900 (Counter Screen), 1662 (Primary HTS)]; assay type: functional, organism-based
[3] = tested on: Streptococcus sp. 'group A'; test: growth inhibition of control SK(-) GAS strain, dose response, counter-screen for streptokinase expression inhibitor project, luminescence, kanamycin, BacTiterGlo, confirmation (AID 1900); assay type: functional, organism-based
[4] = Luminescence Cell-Based Dose Retest to Confirm Inhibitors of Cancer Stem Cells. [Related pubchem assays (depositor defined):AID2717, AID2721]; assay type: functional; conditions: Homo sapiens
[5] = target: T1, Streptokinase A (Streptococcus pyogenes serotype M1, UniProt P10520); test: S. pyogenes streptokinase expression inhibitors, potency, dose response, plasminogen activation absorbance, OD405 (AID 1914); assay type: functional, Streptococcus pyogenes M1 GAS;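 also: secreted streptokinase activity via plasminogen activation per viability signal from cell pellet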
T1 sequence (P10520 whole entry): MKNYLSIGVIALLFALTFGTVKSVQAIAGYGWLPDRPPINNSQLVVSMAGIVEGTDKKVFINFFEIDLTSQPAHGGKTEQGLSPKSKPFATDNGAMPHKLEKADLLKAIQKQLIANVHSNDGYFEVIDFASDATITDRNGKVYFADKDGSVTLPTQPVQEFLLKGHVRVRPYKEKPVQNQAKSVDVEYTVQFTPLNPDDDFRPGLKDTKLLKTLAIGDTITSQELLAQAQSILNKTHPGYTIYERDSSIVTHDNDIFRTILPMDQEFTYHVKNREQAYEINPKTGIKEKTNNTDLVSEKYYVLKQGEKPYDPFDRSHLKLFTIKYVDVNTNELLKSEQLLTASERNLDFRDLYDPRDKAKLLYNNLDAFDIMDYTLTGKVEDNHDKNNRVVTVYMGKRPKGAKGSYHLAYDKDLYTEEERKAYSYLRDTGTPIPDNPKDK

[6] = tested on: Streptococcus; test: Group A Streptococcus viability loss, dose response, counter-screen for streptokinase expression inhibitor project, luminescence, BacTiterGlo (AID 1915); assay type: functional, organism-based;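 also: potency for reduction of bacterial viability or growth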
[7] = target: T2, Dual specificity protein phosphatase 6 (Rattus norvegicus, UniProt Q64346)
T2 sequence (Q64346 whole entry): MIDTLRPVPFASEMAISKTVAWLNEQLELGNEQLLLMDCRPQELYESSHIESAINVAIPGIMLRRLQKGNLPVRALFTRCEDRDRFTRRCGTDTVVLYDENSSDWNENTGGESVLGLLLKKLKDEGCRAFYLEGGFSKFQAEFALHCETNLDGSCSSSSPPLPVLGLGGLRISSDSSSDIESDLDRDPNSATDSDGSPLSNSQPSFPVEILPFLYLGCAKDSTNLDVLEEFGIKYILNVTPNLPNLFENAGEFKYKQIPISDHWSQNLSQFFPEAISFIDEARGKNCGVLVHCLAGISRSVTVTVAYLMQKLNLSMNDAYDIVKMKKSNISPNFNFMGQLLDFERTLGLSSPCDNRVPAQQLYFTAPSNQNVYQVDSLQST

[8] = target: T3, Tyrosine-protein phosphatase non-receptor type 7 (Homo sapiens, UniProt P35236); assay type: functional
T3 sequence (P35236 whole entry): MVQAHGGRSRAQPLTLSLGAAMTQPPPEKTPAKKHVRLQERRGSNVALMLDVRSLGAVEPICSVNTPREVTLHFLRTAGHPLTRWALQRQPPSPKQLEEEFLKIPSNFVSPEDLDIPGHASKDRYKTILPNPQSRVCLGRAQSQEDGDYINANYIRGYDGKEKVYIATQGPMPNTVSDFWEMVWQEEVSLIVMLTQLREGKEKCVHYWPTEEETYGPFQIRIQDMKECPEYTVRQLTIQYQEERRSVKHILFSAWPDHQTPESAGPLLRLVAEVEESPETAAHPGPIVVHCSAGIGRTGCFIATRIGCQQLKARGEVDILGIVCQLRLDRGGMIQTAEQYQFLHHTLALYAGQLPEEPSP

[9] = target: Glyceraldehyde-3-phosphate dehydrogenase (Homo sapiens, UniProt P04406)
[10] = target: Heat shock 70 kDa protein 1A (Homo sapiens, UniProt P0DMV8); test: Hsp70 inhibitors, SAR follow-up, biochemical, fluorescence polarization (AID 1072)
[11] = target: T2, Dual specificity protein phosphatase 6; assay type: functional
[12] = target: Heat shock cognate 71 kDa protein (Homo sapiens, UniProt P11142); test: In Vitro Hsc70 Dose Response Fluorescence Polarization Assay. [Related pubchem assays: 1072 ]
[13] = target: Scavenger receptor class B member 1 (Mus musculus, UniProt Q61009); test: inhibitors of SR-BI mediated HDL lipid uptake, dose response, ldlA[mSR-BI] cells, fluorescence, cherry pick (AID 493194); assay type: functional, cell-based;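 also: cellular uptake of fluorescent DiI-labeled HDL measured as cell fluorescence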
Sequence of Scavenger receptor class B member 1 (Q61009 whole entry): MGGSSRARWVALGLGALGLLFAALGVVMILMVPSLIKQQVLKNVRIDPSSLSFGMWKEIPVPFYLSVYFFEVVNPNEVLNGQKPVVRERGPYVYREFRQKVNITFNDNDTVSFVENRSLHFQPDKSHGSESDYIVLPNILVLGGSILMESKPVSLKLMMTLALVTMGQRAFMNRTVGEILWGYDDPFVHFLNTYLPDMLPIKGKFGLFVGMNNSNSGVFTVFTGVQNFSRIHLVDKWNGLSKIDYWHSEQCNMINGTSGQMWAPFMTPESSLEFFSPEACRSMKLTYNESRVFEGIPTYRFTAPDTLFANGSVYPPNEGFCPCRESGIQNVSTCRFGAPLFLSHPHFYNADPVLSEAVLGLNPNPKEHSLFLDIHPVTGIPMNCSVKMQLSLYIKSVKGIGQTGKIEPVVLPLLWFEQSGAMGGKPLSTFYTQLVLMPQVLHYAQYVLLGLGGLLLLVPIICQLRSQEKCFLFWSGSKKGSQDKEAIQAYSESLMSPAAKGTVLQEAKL

Sequence of Heat shock cognate 71 kDa protein (P11142 whole entry): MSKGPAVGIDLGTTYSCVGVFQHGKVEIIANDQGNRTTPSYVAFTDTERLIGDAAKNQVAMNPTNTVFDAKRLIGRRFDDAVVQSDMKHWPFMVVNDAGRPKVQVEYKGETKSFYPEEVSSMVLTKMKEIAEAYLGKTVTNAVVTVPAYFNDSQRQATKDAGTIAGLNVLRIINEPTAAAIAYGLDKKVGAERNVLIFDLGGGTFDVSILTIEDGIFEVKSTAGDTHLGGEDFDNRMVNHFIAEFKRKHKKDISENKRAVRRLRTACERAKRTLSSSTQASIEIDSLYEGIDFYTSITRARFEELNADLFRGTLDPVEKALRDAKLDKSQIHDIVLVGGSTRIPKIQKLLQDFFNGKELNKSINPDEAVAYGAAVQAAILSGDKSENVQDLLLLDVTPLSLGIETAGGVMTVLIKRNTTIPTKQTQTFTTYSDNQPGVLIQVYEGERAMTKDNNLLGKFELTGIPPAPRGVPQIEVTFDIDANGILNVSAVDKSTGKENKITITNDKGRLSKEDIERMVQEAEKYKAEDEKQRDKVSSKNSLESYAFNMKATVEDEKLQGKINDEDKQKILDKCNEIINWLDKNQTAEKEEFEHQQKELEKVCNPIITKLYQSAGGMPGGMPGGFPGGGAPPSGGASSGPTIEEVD
Sequence of Glyceraldehyde-3-phosphate dehydrogenase (P04406 whole entry): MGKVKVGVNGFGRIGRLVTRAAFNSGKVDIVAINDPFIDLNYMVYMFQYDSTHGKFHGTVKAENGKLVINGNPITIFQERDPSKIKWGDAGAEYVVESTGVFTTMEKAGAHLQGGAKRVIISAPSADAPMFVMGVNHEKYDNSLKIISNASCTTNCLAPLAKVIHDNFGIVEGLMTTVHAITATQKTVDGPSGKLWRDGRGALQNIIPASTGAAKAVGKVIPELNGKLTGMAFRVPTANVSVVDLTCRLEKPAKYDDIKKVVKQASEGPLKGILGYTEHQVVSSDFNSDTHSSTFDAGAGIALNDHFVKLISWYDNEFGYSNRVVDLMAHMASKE
Sequence of Beta-galactosidase (Q8VNN2 whole entry): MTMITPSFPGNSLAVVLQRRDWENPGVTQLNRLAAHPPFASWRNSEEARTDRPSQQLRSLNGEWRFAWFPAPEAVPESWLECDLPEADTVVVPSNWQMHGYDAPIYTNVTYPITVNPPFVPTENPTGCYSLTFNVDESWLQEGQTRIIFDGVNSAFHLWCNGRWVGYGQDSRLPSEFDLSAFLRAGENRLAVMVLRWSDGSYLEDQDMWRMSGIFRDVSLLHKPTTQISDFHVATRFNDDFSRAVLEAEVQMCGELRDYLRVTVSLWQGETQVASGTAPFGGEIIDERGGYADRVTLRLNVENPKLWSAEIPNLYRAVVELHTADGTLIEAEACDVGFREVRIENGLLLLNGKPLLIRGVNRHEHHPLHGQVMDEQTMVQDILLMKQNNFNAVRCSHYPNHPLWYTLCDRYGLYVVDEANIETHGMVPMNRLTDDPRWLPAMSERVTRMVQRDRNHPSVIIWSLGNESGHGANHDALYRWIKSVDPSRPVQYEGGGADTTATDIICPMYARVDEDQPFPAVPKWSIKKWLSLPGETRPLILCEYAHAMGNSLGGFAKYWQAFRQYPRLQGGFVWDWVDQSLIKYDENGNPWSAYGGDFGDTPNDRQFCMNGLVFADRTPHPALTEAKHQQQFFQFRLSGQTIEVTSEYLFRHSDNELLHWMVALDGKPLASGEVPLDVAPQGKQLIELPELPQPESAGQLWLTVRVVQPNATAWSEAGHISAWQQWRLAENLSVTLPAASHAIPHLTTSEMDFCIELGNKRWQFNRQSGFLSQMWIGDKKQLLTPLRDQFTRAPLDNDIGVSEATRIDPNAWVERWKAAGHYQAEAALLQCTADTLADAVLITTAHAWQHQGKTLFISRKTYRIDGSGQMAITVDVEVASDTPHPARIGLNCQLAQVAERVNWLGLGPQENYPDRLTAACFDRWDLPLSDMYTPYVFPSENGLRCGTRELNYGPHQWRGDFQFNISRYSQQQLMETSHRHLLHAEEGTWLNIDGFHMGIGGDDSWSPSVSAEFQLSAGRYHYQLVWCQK
Sequence of Heat shock 70 kDa protein 1A (P0DMV8 whole entry): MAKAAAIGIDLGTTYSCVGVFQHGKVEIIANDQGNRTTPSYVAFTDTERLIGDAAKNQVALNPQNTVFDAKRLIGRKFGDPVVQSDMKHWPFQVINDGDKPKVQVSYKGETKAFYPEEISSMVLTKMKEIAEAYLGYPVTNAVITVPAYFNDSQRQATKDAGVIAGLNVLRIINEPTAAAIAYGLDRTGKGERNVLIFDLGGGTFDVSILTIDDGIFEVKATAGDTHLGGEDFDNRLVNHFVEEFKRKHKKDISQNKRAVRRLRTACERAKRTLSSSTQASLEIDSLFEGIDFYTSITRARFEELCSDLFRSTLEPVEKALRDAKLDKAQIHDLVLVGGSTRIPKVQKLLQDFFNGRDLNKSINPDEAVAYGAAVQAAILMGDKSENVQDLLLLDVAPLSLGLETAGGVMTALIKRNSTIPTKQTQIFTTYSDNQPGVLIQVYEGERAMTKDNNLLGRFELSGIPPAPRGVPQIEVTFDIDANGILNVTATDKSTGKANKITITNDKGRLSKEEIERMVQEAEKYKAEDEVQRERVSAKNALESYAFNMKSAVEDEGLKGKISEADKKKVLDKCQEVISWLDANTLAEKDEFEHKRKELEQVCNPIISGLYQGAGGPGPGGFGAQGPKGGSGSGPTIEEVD

C=CCN1CC[C@]23c4c5ccc(O)c4O[C@H]2C(=O)CC[C@@]3(O)[C@H]1C5 [NALOXONE HYDROCHLORIDE]
EC50 [1]: > 31.5 µM (inactive)

CCCCn1c(=O)c(C(=O)NCc2ccccc2)c(O)c2ccccc21
EC50 [2]: > 500 µM (not active)
EC50 [3]: 17.5 µM (active)
AC50 [4]: 8.37 µM (active)
EC50 [5]: 6.35 µM (active)
EC50 [6]: > 150 µM (inconclusive)

O=C(O)c1ccc([N+](=O)[O-])c2c1NC(C(=O)O)C1CC=CC21 (centres undefined)
IC50 [7]: > 100 µM (inactive)
IC50 [8]: 92.9 µM (active)
IC50 [9]: > 100 µM (not active)
IC50 [10]: 90.6 µM (active)
IC50 [11]: > 100 µM (inactive)
IC50 [12]: > 100 µM (not active)

OC1CCN(c2cc(-c3ccccc3)nc3cc(-c4ccc(F)cc4)nn23)CC1
AC50 [4]: 4.72 µM (active)
AC50 [13]: 11.8 µM (active)
